In brackets after ≈: the same amount, converted by molar mass. Where two headings read alike, the source gives them in different places. Each block holds one compound with its values, some of them ahead of it.
Assays:
[1] = Approximate solubility at RT by stepwise solvent addition; assay type: physicochemical
Experimental: The approximate solubility of (S)-4-((2-methoxyethyl)(4-(5,6,7,8-tetrahydro-1,8-naphthyridin-2-yl)butyl)amino)-2-(quinazolin-4-ylamino)butanoic acid was determined at RT. Approximately 2 mg of solids were added into a 3-mL glass vial. Different solvents were then added stepwise (50-50-200-700 μL for each step) into the vials and stirred until the solids were dissolved or a total volume of 1 mL was reached.
The approximate solubility of Form I was determined at RT. Approximately 2 mg of solids were added into 3-mL glass vials. Different solvents were then added stepwise (50-50-200-700 μL for each step) into the vials until the solids were dissolved or a total volume of 1 mL was reached.

[2] = Heating experiment, solid form checked by XRPD; assay type: physicochemical; conditions: for solid form after heating: after heating to 150° C.
[3] = target: recombinant human integrin αvβ6 (Homo sapiens, UniProt P06756+P18564); assay: Solid phase integrin αvβ6 binding assay; conditions: TGFβ1 LAP binding to coated integrin, four-parameter logistic regression; read-out: IC50 for αvβ6 integrin inhibition
recombinant human integrin αvβ6, sequence (P06756 31-992 limits assumed): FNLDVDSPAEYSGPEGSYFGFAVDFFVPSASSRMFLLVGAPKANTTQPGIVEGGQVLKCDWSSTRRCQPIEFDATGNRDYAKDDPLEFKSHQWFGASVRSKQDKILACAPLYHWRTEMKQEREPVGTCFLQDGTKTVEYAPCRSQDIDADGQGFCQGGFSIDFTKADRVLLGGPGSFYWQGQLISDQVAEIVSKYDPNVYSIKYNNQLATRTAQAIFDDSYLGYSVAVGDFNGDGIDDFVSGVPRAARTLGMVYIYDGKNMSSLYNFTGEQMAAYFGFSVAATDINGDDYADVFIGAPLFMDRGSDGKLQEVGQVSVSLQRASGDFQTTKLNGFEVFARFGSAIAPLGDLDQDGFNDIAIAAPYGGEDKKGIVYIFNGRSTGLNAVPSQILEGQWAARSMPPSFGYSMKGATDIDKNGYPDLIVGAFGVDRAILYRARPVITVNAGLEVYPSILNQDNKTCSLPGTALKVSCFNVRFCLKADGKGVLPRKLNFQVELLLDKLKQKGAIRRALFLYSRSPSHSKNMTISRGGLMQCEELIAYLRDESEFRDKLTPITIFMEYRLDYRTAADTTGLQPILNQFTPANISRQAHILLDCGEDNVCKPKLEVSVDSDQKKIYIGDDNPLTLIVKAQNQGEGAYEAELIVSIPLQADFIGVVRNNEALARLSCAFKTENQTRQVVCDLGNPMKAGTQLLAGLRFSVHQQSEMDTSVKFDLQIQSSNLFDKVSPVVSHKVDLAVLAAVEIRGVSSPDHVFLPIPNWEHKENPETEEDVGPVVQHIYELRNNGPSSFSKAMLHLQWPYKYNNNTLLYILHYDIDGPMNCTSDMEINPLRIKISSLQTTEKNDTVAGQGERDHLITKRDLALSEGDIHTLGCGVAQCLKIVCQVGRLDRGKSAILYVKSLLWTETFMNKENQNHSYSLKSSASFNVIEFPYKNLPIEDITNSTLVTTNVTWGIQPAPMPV
recombinant human integrin αvβ6, sequence (P18564 22-707 limits assumed): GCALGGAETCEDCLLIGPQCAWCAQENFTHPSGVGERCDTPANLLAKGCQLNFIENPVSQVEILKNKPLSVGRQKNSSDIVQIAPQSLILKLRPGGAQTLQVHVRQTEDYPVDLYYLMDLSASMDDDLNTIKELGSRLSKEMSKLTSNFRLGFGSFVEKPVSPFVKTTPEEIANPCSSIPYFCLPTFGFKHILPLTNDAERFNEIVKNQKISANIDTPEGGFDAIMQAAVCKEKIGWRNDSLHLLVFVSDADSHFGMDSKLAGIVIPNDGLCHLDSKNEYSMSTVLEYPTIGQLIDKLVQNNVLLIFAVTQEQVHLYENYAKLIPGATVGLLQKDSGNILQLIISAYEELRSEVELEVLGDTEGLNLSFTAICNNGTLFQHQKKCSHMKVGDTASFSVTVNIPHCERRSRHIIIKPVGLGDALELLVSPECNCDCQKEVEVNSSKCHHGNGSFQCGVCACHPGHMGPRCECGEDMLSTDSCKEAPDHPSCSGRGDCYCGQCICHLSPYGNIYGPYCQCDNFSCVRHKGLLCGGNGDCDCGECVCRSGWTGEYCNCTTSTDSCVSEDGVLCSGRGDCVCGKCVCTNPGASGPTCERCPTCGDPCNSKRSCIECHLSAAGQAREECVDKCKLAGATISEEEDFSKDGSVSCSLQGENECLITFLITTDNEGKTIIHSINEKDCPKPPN
Experimental: Microplates were coated with recombinant human integrin αvβ6 (2 μg/mL) in PBS (100 μL/well 25° C., overnight). The coating solution was removed, washed with wash buffer (0.05% Tween 20; 0.5 mM MnCl2; in 1×TBS). The plate was blocked with 200 μL/well of Block Buffer (1% BSA; 5% sucrose; 0.5 mM MnCl2; in 1×TBS) at 37° C. for 2 h. Dilutions of testing compounds and recombinant TGFβ1 LAP (0.67 μg/mL) in binding buffer (0.05% BSA; 2.5% sucrose; 0.5 mM MnCl2; in 1×TBS) were added. The plate was incubated for 2 hours at 25° C., washed, and incubated for 1 hour with Biotin-Anti-hLAP. Bound antibody was detected by peroxidase-conjugated streptavidin. The IC50 values for testing compounds were calculated by a four-parameter logistic regression. The IC50 value obtained for αvβ6 integrin inhibition for (S)-4-((2-methoxyethyl)(4-(5,6,7,8-tetrahydro-1,8-naphthyridin-2-yl)butyl)amino)-2-(quinazolin-4-ylamino)butanoic acid was <50 nM.

[4] = Dynamic vapor sorption (DVS); assay type: physicochemical; conditions: 4.5 g scale batch
Experimental: DVS was measured via a SMS (Surface Measurement Systems) DVS Intrinsic. The relative humidity at 25° C. were calibrated against the deliquescence point of LiCl, Mg(NO3)2 and KCl.
Form I on 4.5 g scale was obtained via slurrying 4.5 g amorphous freeform of (S)-4-((2-methoxyethyl)(4-(5,6,7,8-tetrahydro-1,8-naphthyridin-2-yl)butyl)amino)-2-(quinazolin-4-ylamino)butanoic acid and an equimolar amount of 85% phosphoric acid (1.05 g) in anhydrous EtOH (≥99.7%) (112 mL) at RT and seeded with around 1 wt % Form I seed. The product was analyzed by XRPD, DSC, TGA, DVS, ^1H NMR, and HPLC. […] Based on HPLC/IC analysis, the molar ratio of API:phosphoric acid was 1:1.

- Solubility ([1]; 1,4-Dioxane): S > 42.0 mg/mL
- Solubility ([1]; DCM): S > 38.0 mg/mL
- Solubility ([1]; DMSO): S > 42.0 mg/mL
- Solubility ([1]; EtOH): S > 44.0 mg/mL
- Solubility ([1]; IPA): S > 48.0 mg/mL
- Solubility ([1]; THF): S > 32.0 mg/mL
SMILES: COCCN(CCCCc1ccc2c(n1)NCCC2)CC[C@H](Nc1ncnc2ccccc12)C(=O)O [(S)-4-((2-methoxyethyl)(4-(5,6,7,8-tetrahydro-1,8-naphthyrid] [(S)-4-((2-methoxyethyl)(4-(5,6,7,8-tetrahydro-1,8-naphthyridin-2-yl)butyl)amino)-2-(quinazolin-4-ylamino)butanoic acid]

- solid form after heating [2]: amorphous
SMILES: COCCN(CCCCc1ccc2c(n1)NCCC2)CC[C@H](Nc1ncnc2ccccc12)C(=O)O [Form II, (S)-4-((2-methoxyethyl)(4-(5,6,7,8-tetrahydro-1,8-naphthyridin-2-yl)butyl)amino)-2-(quinazolin-4-ylamino)butanoic acid]

- Solubility ([1]; ACN, organic solvent or mixture, thermodynamic from solid, ACN, read-out: Solubility): 1900 to 6300 µg/mL (≈ 3.86 to 12.8 mM)
- Solubility ([1]; CPME, organic solvent or mixture, thermodynamic from solid, CPME, read-out: Solubility): 2600 to 8700 µg/mL (≈ 5.28 to 17.7 mM)
- Solubility ([1]; EtOAc, organic solvent or mixture, thermodynamic from solid, EtOAc, read-out: Solubility): 2100 to 7000 µg/mL (≈ 4.26 to 14.2 mM)
- Solubility ([1]; IPAc, organic solvent or mixture, thermodynamic from solid, IPAc, read-out: Solubility): 2300 to 7700 µg/mL (≈ 4.67 to 15.6 mM)
- Solubility ([1]; MIBK, organic solvent or mixture, thermodynamic from solid, MIBK, read-out: Solubility): 2500 to 8300 µg/mL (≈ 5.07 to 16.8 mM)
- Solubility ([1]; MTBE, organic solvent or mixture, thermodynamic from solid, MTBE, read-out: Solubility): < 2000 µg/mL
- Solubility ([1]; MeOH, organic solvent or mixture, thermodynamic from solid, MeOH, read-out: Solubility): > 52000 µg/mL
- Solubility ([1]; Toluene, organic solvent or mixture, thermodynamic from solid, Toluene, read-out: Solubility): 1900 to 6300 µg/mL (≈ 3.86 to 12.8 mM)
- Solubility ([1]; n-Heptane, organic solvent or mixture, thermodynamic from solid, n-Heptane, read-out: Solubility): < 2200 µg/mL
- IC50 [3]: < 50 nM
SMILES: COCCN(CCCCc1ccc2c(n1)NCCC2)CC[C@H](Nc1ncnc2ccccc12)C(=O)O [(S)-4-((2-methoxyethyl)(4-(5,6,7,8-tetrahydro-1,8-naphthyridin-2-yl)butyl)amino)-2-(quinazolin-4-ylamino)butanoic acid]

- water absorption ([4]; 25° C./80% RH): 16.4%
- state after the DVS test ([4]; after DVS test): deliquescent
- form change after heating ([2]; after heating to 110° C.): No form changes
- solid form after heating [2]: amorphous
- Solubility ([1]; 1,4-Dioxane): S < 1.7 mg/mL
- Solubility ([1]; 2-MeTHF): S < 2.1 mg/mL
- Solubility ([1]; ACN): S < 1.6 mg/mL
- Solubility ([1]; Acetone): S < 1.9 mg/mL
- Solubility ([1]; CPME): S < 1.9 mg/mL
- Solubility ([1]; DCM): S < 2.8 mg/mL
- Solubility ([1]; EtOAc): S < 1.7 mg/mL
- Solubility ([1]; H2O): S > 56.0 mg/mL
- Solubility ([1]; IPA): S < 2.2 mg/mL
- Solubility ([1]; IPAc): S < 2.6 mg/mL
- Solubility ([1]; MEK): S < 2.4 mg/mL
- Solubility ([1]; MIBK): S < 2.8 mg/mL
- Solubility ([1]; MTBE): S < 2.1 mg/mL
- Solubility ([1]; MeOH): S > 52.0 mg/mL
- Solubility ([1]; THF): S < 1.6 mg/mL
- Solubility ([1]; Toluene): S < 2.2 mg/mL
- Solubility ([1]; n-Heptane): S < 2.1 mg/mL
SMILES: COCCN(CCCCc1ccc2c(n1)NCCC2)CC[C@H](Nc1ncnc2ccccc12)C(=O)O [Form I, (S)-4-((2-methoxyethyl)(4-(5,6,7,8-tetrahydro-1,8-naphthyridin-2-yl)butyl)amino)-2-(quinazolin-4-ylamino)butanoic acid]

Source: patent US12637462B2, “Integrin inhibitor and uses thereof” (Pliant Therapeutics, Inc., priority 2020, dated 2026)
